Measured values taken from patent publication US20140274782A1, “AFFINITY REAGENTS AND METHODS FOR DETECTION, PURIFICATION, AND PROTEOMIC ANALYSIS OF METHYLATED PROTEINS” (The Board of Trustees of the Leland Stanford Junior …, priority 2013, published 2014).

Legend:
H3K9me2 = assay: Western blot of 293T whole cell extracts ±UNC0638; type: cell-based; conditions: 293T cells
Procedure: For UNC0638 treatments cells were treated for 24 hours with UNC0638 at 2.5 μM or DMSO vehicle control. One experiment treated cells in light media with UNC0638, the other treated cells in heavy media. Both experiments included cells in medium media treated with DMSO for negative control pull-down with 3×MBTD355N.

G9a and GLP = target: T1, G9a and GLP (Homo sapiens, UniProt Q96KQ7+Q9H9B1); assay: Triple SILAC pull-down after UNC0638 treatment of 293T cells, DMSO/UNC0638 ratio of protein captured by 3×MBT; type: cell-based; conditions: 293T cells, 2.5 μM, 24 hours;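 also: mass spectrometry (Q-Exactive) SILAC quantitation, DMSO/UNC0638 ratio computed after subtracting 3×MBTD355N mutant pull-down background, only proteins with at least twofold 3×MBT over mutant signal considered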
T1 construct: endogenous in cells; host or cells: HEK 293T
T1 sequence (Q96KQ7 2-1210 limits assumed): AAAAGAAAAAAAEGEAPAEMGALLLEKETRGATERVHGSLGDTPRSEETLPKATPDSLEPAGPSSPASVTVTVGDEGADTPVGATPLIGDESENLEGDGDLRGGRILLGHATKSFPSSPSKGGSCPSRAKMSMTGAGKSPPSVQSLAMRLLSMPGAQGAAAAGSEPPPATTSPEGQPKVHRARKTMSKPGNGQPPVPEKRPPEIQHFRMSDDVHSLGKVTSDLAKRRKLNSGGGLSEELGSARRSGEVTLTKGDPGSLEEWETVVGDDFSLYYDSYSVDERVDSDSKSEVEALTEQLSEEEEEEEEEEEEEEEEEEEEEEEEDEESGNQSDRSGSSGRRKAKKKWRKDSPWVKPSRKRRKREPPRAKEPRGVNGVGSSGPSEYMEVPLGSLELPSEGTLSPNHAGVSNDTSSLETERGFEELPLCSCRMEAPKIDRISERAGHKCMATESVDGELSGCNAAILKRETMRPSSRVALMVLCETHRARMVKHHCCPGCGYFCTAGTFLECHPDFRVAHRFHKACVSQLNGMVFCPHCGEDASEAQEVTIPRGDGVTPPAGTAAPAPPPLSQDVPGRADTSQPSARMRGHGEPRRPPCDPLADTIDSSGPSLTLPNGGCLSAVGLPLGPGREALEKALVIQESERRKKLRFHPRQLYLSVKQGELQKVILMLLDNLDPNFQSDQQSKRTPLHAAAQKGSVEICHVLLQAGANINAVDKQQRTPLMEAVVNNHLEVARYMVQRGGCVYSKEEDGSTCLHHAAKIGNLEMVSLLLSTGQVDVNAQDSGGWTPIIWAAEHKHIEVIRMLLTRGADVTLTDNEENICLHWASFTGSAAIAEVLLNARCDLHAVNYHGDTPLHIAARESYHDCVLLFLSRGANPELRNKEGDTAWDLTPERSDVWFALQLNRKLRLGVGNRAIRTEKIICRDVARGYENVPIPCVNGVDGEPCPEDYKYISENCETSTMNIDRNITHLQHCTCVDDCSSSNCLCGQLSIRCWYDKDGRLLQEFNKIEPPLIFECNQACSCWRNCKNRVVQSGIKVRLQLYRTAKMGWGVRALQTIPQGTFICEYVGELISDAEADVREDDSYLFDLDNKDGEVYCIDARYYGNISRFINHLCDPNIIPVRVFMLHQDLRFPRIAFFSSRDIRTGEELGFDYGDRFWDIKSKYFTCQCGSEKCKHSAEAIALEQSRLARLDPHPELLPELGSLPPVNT
T1 sequence (Q9H9B1 2-1298 limits assumed): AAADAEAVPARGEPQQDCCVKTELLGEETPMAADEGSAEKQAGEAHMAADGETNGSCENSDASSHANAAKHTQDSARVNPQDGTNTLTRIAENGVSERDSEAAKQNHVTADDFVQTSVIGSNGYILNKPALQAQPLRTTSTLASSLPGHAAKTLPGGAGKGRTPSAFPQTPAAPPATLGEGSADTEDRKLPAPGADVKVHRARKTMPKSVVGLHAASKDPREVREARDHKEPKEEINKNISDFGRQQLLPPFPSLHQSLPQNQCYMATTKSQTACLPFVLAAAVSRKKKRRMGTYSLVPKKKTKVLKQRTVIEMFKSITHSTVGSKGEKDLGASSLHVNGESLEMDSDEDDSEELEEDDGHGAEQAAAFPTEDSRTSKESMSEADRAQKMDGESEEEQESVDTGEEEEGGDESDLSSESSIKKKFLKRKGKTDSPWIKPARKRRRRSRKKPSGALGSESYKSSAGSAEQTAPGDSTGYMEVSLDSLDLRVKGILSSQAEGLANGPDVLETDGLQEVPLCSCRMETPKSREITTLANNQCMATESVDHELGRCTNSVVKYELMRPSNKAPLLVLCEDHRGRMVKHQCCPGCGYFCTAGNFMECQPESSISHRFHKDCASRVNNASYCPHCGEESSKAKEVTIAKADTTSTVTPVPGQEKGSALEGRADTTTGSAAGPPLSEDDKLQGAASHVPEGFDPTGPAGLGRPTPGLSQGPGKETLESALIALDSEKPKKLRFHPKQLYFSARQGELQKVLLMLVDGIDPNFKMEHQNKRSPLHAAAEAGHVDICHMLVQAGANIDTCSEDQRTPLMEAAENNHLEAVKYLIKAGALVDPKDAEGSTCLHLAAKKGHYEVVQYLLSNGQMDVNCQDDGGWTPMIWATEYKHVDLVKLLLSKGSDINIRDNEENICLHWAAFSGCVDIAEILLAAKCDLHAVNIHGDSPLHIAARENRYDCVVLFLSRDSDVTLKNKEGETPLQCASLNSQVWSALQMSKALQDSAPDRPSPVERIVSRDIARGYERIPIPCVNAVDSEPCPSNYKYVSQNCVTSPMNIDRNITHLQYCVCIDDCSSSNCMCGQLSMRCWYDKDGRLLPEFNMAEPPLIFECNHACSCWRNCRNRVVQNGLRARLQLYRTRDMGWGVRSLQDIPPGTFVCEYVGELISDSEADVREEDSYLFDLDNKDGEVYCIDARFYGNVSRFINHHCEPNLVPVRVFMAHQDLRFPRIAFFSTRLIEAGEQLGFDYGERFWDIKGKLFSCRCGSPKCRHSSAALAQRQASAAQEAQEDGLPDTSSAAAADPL

3×MBT domain of L3MBTL1 = assay: SILAC proteomic pull-down 3×MBT vs 3×MBTD355N from 293T nuclear extract, LC-MS/MS; type: binding, human; conditions: for Protein Ratio 3xMBT/D355N: SILAC ratio, 293T nuclear extract pull-down, * = protein identified in only one labeling experiment
Procedure: Protein pull-downs were performed as described above using 600 μg of nuclear extract prepared with isotopic labels as indicated. After eluting with glutathione, 3×MBT domain was removed by dialysis into high salt and rebinding to GSH-sepharose. Bound proteins were separated by SDS-PAGE and analyzed by in-gel tryptic digest followed by LC-MS/MS. Peptides were identified using MaxQuant version 1.2.2.5 (Cox and Mann (2008) Nat. Biotechnol. 26, 1367-1372) and candidate methylated peptides were verified by manual inspection.
For stable isotope labeling by amino acids in cell culture (SILAC) experiments HEK 293T cells were grown for at least six doublings in DMEM for SILAC supplemented with 10% dialyzed fetal bovine serum (FBS), 230 mg/L L-proline and either 100 mg/L each of L-lysine and L-arginine (“light” medium), D4-L-lysine and ^13C6-L-arginine (“medium” media), or ^13C6^15N2-L-lysine and ^13C6^15N4-L-arginine (Thermo Scientific). Heavy methyl labeling used DMEM without L-Methionine or L-Cysteine supplemented with D3^13C-L-Methionine (Sigma), L-Cysteine (Sigma) and 10% dialyzed FBS.
600 μg of nuclear extract was incubated overnight rotating at 4° C. with 20 μl packed 3×MBT or 3×MBTD355N beads in a total volume of 250 μL with binding buffer. Supernatant was removed and saved for use as a loading control. Beads were washed 4×5 minutes with 0.5 mL binding buffer. Protein was eluted by incubating in 20 μL elution buffer (10 mg/mL glutathione in 50 mM Tris pH 8.0) rotating at 4° C. for four hours. Elutions from 3×MBT and 3×MBTD355N were combined and dialyzed overnight at 4° C. against 10,000× volume of dissociation buffer (50 mM Tris pH 7.5, 750 mM NaCl) in a 0.1 mL Slide-A-Lyzer MINI Dialysis Device with 3.5K molecular weight cutoff (Thermo Scientific). 80 μL of GSH-Sepharose was prepared by washing briefly three times with 0.5 mL binding buffer. Dialyzed proteins were added to the GSH-Sepharose and incubated 4 hours rotating at 4° C. to deplete the GST-fusion domains. Supernatant was transferred to a fresh 1.5 mL tube. Proteins were separated by SDS-PAGE on a 10% polyacrylamide gel and stained using SilverQuest Silver Staining Kit (Life Technologies). Lanes were excised, residual 3×MBT band was removed, and gel was diced into 0.5 mm cubes. Gel pieces were destained and processed by in-gel digestion (Carlson et al. (2011) Science Signaling 4) with sequencing grade trypsin (Promega) and the peptide sample was dried completely in a vacuum centrifuge. To prepare a loading control, 2 μL each of light and heavy nuclear extract were combined, 6 μL of 8M urea was added, proteins were denatured by adding 2 μL of 100 mM dithiothreitol in digest buffer (50 mM ammonium bicarbonate) and heating to 60° C. for 1 hour, cysteine was alkylated by adding 2.2 μL 100 mg/mL iodoacetamide in digest buffer and incubating 1 hour at room temperature in darkness, and proteins were digested by adding 80 μL trypsin (Promega) at 12.5 ng/μL in digest buffer and incubating overnight at room temperature in darkness. Digestion was stopped by adding 10 μL of 10% formic acid.
Each experiment consisted of two sets of pull-downs: “forward” labeling with 3×MBT incubated with light nuclear extract and 3×MBTD355N with medium extract, and a second “reverse” labeling experiment with the label conditions swapped. Proteins were included in the results if they were quantified in both labeling directions. To determine reproducibility the entire experiment including the label swap was duplicated using independent protein preparations and a mass spectrometer at another institution.
For 3×MBT pull-down experiment #1 the gel lane was processed and peptides were loaded off-line onto a first dimension trap column (Waters Xbridge, C18, 10 μm particle size, 100 Å pore size, 5 cm packing length, 150 μm column i.d.). […]

## COc1cc2c(NC3CCN(C(C)C)CC3)nc(C3CCCCC3)nc2cc1OCCCN1CCCC1 [UNC0638, reference compound]
H3K9me2
  levels of the G9a target H3K9me2 in treated cells: reduced
G9a and GLP
  number of candidate G9a/GLP substrates showing reduced association with 3×MBT in response to treatment: 23

## hn RNP A/B: protein with methylated lysine identified in 3xMBT pull-down
3×MBT domain of L3MBTL1
  Protein Ratio 3xMBT/D355N: 13.4

## TUBB2C: protein with methylated lysine identified in 3xMBT pull-down
3×MBT domain of L3MBTL1
  Protein Ratio 3xMBT/D355N: 2.1

## hnRNP K: protein with methylated lysine identified in 3xMBT pull-down
3×MBT domain of L3MBTL1
  Protein Ratio 3xMBT/D355N: 8.0

## 3×MBTD355N: 3×MBT with mutation of aspartate 355 to asparagine; abrogates binding to methyl-lysine; negative control [reference compound]
3×MBT domain of L3MBTL1; SILAC
  number of the 544 identified proteins enriched at 2-fold versus the other domain: 3
  percentage of the 544 identified proteins enriched at 2-fold versus the other domain: 0.6%
